# From US20080103170A1, “Nicotinic Acetylcholine Receptor Ligands” (AstraZeneca AB, priority 2004, published 2008)
# Biological target: T1, α4 nAChR (Rattus norvegicus, UniProt P09483+P12390)
# T1 construct: from tissue; host or cells: rat cortical brain membranes
# Experiment: Affinity at α4 nAChR by [125I]-IPH binding to rat cortical membranes
# Conditions: saturation curves fitted to a one site model
# Method: Assay for Affinity at an α4 nAChR Receptor by Measuring the Binding of […] Binding to Rat Cortical Membranes
# A procedure modified from Martino-Barrows and Kellar (Mol Pharm (1987) 31:169-174) may be used. Rat cortical brain membranes are prepared as described in the [^125I]α-BTX binding assay, except that a 500-12000×g membrane fraction is prepared. Membranes (30-150 μg) are incubated with 30-100 pM of the epibatidine analog [^125I]-IPH ((+/−)-exo-2-(2-iodo-5-pyridyl)-7-azabicyclo-[2,2,1]heptane) together with test compound in HB for 1 hour at room temperature with gentle shaking. Membranes may be recovered as described for the [^125I]α-BTX binding assay. Non-specific binding may be determined by 100 μM carbachol. Typically specific binding is about 84%.
# Analysis of Binding Data Obtained in α7 nAChR or α4 nAChR Receptor Assays
# IC50 values and pseudo Hill coefficients (nH) may be calculated using the non-linear curve fitting program ALLFIT (DeLean A, Munson P J and Rodbard D (1977) Am. J. Physiol., 235:E97-E102). […] Ki values may be estimated using the general Cheng-Prusoff equation:
# Ki=[IC50]/((2+ligand/KD)^n)^1/n−1)
# where a value of n=1 is used whenever nH<1.5 and a value of n=2 is used when nH≧1.5. To account for variability, assays may be performed in triplicate and variability will typically be ±5%. Ki values may be determined using six to 11 drug concentrations.
# T1 sequence (P12390 25-500): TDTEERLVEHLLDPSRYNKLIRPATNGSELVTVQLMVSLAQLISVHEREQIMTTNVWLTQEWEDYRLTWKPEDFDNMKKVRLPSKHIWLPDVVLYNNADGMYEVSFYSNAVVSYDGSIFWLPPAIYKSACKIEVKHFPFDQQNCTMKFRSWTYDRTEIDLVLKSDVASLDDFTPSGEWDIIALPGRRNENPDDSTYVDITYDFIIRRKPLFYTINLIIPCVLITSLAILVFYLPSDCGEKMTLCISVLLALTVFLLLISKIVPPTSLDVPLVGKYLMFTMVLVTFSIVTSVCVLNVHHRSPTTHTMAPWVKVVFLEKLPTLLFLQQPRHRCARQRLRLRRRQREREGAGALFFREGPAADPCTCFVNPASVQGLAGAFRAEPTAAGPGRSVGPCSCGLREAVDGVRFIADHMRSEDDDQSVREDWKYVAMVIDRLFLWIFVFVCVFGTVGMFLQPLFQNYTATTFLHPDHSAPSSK
# T1 sequence (P09483 31-630): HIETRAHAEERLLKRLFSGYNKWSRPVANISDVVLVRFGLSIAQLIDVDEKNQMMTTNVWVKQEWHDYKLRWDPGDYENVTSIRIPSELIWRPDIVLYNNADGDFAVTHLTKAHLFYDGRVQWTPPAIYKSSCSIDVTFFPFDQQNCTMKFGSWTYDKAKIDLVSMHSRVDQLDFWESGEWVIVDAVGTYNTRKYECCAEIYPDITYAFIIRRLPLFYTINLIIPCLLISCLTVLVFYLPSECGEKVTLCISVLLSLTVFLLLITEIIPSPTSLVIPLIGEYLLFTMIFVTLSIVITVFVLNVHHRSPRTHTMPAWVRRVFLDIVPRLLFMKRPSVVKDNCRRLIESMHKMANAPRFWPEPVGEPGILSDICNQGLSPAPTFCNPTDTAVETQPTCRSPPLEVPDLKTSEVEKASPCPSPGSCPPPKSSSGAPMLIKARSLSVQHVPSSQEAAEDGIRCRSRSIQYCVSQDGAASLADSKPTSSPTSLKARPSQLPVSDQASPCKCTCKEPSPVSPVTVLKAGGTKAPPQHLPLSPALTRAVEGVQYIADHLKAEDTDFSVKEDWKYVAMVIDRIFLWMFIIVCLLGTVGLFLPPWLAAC
smiles,measurement,value
"Ic1ccc(C2CC3CCC2N3)cn1 (racemic) [[^125I]-IPH, (+/−)-exo-2-(2-iodo-5-pyridyl)-7-azabicyclo-[2,2,1]heptane]",Kd,0.064 nM
